This is an account of results in US20260305610A1, “TRIAZOLE COMPOUND, AND PREPARATION METHOD THEREFOR, HERBICIDAL COMPOSITION AND USE THEREOF” (QINGDAO KINGAGROOT CHEMICAL COMPOUND CO., LTD., priority 2023, published 2026).

The test system of one series is major crops. As to the kind of experiment: Pre-emergence test experiment (crops). The note with it: 30 g a.i./ha. In kind it is in vivo. Set-up: key: 9: completely dead; 8: growth control rate is greater than or equal to 90% and less than 100%; 7: growth control rate is greater than or equal to 80% and less than 90%; 6: growth control rate is greater than or equal to 70% and less than 80%; growth control rate is greater than or equal to 50% and less than 70%; 4: growth control rate is greater than or equal to 30% and less than 50%; growth control rate is greater than or equal to 20% and less than 30%; growth control rate is greater than or equal to 10% and less than 20%; growth control rate is less than 10%; 0: no effect.

In series [1] the test system is monocotyledonous and dicotyledonous weeds. As to the kind of experiment: Pre-emergence test experiment (weeds). In kind it is in vivo. Set-up: key: 9: completely dead; 8: growth control rate is greater than or equal to 90% and less than 100%; 7: growth control rate is greater than or equal to 80% and less than 90%; 6: growth control rate is greater than or equal to 70% and less than 80%; growth control rate is greater than or equal to 50% and less than 70%; 4: growth control rate is greater than or equal to 30% and less than 50%; growth control rate is greater than or equal to 20% and less than 30%; growth control rate is greater than or equal to 10% and less than 20%; growth control rate is less than 10%; 0: no effect. The note with it: 30 g a.i./ha.

Each structure is given as a SMILES string.

Consider `CCc1ccc(-n2cnc(C(F)(F)C(F)(F)F)n2)nc1Oc1cccc(C(F)(F)F)c1` [Compound 19], for which, in the series with major crops, the “Pre-emergence plant damage level (growth control rate) on Corn” value (“Pre-emergence plant damage level … on Corn” below) is given as 0, the “Pre-emergence plant damage level (growth control rate) on Cotton” value (“Pre-emergence plant damage level … on Cotton” for short) was found to be 0 and the “Pre-emergence plant damage level (growth control rate) on Soybean” value (“Pre-emergence plant damage level … on Soybean” below) came to 0. Further, in series [1], the “Pre-emergence activity level (growth control rate) on Amaranthus retroflexus” value was determined as 9; the “Pre-emergence activity level (growth control rate) on Descurainia sophia” value is 9; the “Pre-emergence activity level (growth control rate) on Digitaria sanguinalis” value is 8 (growth control rate is greater than or equal to 90% and less than 100%); the “Pre-emergence activity level (growth control rate) on Setaria viridis” value is 8 (growth control rate is greater than or equal to 90% and less than 100%). Besides, in series [1], the “Pre-emergence activity level (growth control rate) on Solanum nigrum” value is 8 (growth control rate is greater than or equal to 90% and less than 100%); the “Pre-emergence activity level (growth control rate) on Veronica” value (“Pre-emergence activity level … on Veronica” below) is listed as 9.
Regarding `CCCc1ccc(-n2cnc(C(F)(F)F)n2)nc1Oc1cccc(C(F)(F)F)c1` [Compound 21], in the series on major crops, the “Pre-emergence plant damage level … on Corn” value came to 0, the “Pre-emergence plant damage level … on Cotton” value is recorded as 0 and the “Pre-emergence plant damage level … on Soybean” value is 0. In series [1], the “Pre-emergence activity level (growth control rate) on Amaranthus retroflexus” value is on record as 9; the “Pre-emergence activity level (growth control rate) on Descurainia sophia” value came out at 9; the “Pre-emergence activity level (growth control rate) on Digitaria sanguinalis” value was 8 (growth control rate is greater than or equal to 90% and less than 100%); the “Pre-emergence activity level (growth control rate) on Setaria viridis” value was 8 (growth control rate is greater than or equal to 90% and less than 100%). In series [1], the “Pre-emergence activity level (growth control rate) on Solanum nigrum” value was 7 (growth control rate is greater than or equal to 80% and less than 90%); the “Pre-emergence activity level … on Veronica” value is 9.
With `FC(F)(F)c1cccc(Oc2nc(-n3cnc(C(F)(F)F)n3)ccc2C2CC2)c1` [Compound 22], in the series on major crops, the “Pre-emergence plant damage level … on Corn” value amounted to 0, the “Pre-emergence plant damage level … on Cotton” value amounted to 0 and the “Pre-emergence plant damage level … on Soybean” value was 0. Moreover, in series [1], the “Pre-emergence activity level (growth control rate) on Amaranthus retroflexus” value worked out at 9; the “Pre-emergence activity level (growth control rate) on Descurainia sophia” value turned out to be 9; the “Pre-emergence activity level (growth control rate) on Digitaria sanguinalis” value was 7 (growth control rate is greater than or equal to 80% and less than 90%); the “Pre-emergence activity level (growth control rate) on Setaria viridis” value is 8 (growth control rate is greater than or equal to 90% and less than 100%). In addition, in series [1], the “Pre-emergence activity level (growth control rate) on Solanum nigrum” value is 7 (growth control rate is greater than or equal to 80% and less than 90%); the “Pre-emergence activity level … on Veronica” value turned out to be 9.
`Cc1ccc(-n2cnc(C(F)(F)F)n2)nc1Oc1cccc(F)c1` [Compound 39]: in the series on major crops, the “Pre-emergence plant damage level … on Corn” value was determined as 0, the “Pre-emergence plant damage level … on Cotton” value is 0 and the “Pre-emergence plant damage level … on Soybean” value was 0. Moreover, in series [1], the “Pre-emergence activity level (growth control rate) on Amaranthus retroflexus” value came out at 9 and the “Pre-emergence activity level … on Veronica” value is given as 9.
As for `Cc1ccc(-n2cnc(C(F)(F)F)n2)nc1Oc1cccc(Cl)c1` [Compound 40], in the series on major crops, the “Pre-emergence plant damage level … on Corn” value was found to be 0, the “Pre-emergence plant damage level … on Cotton” value came out at 0 and the “Pre-emergence plant damage level … on Soybean” value is recorded as 0. In addition, in series [1], the “Pre-emergence activity level (growth control rate) on Amaranthus retroflexus” value was determined as 9; the “Pre-emergence activity level (growth control rate) on Descurainia sophia” value was 9; the “Pre-emergence activity level (growth control rate) on Digitaria sanguinalis” value was 7 (growth control rate is greater than or equal to 80% and less than 90%); the “Pre-emergence activity level (growth control rate) on Setaria viridis” value was 7 (growth control rate is greater than or equal to 80% and less than 90%). In series [1], the “Pre-emergence activity level (growth control rate) on Solanum nigrum” value was 7 (growth control rate is greater than or equal to 80% and less than 90%); the “Pre-emergence activity level … on Veronica” value is 9.
For `Cc1ccc(-n2cnc(C(F)(F)F)n2)nc1Oc1cccc(OC(F)F)c1` [Compound 43], in the series on major crops, the “Pre-emergence plant damage level … on Corn” value is reported as 0, the “Pre-emergence plant damage level … on Cotton” value amounted to 0 and the “Pre-emergence plant damage level … on Soybean” value is 0. Further, in series [1], the “Pre-emergence activity level (growth control rate) on Amaranthus retroflexus” value was 9; the “Pre-emergence activity level (growth control rate) on Descurainia sophia” value is recorded as 9; the “Pre-emergence activity level (growth control rate) on Digitaria sanguinalis” value came to 9; the “Pre-emergence activity level (growth control rate) on Setaria viridis” value was 8 (growth control rate is greater than or equal to 90% and less than 100%). Also, in series [1], the “Pre-emergence activity level (growth control rate) on Solanum nigrum” value was 7 (growth control rate is greater than or equal to 80% and less than 90%); the “Pre-emergence activity level … on Veronica” value is reported as 9.
Consider `Cc1ccc(-n2cnc(C(F)(F)C(F)(F)F)n2)nc1Oc1cccc(OC(F)(F)F)c1` [Compound 65], for which, in the series on major crops, the “Pre-emergence plant damage level … on Corn” value was found to be 0, the “Pre-emergence plant damage level … on Cotton” value came to 0 and the “Pre-emergence plant damage level … on Soybean” value is 0. Also, in series [1], the “Pre-emergence activity level (growth control rate) on Descurainia sophia” value amounted to 9, the “Pre-emergence activity level (growth control rate) on Digitaria sanguinalis” value is on record as 9 and the “Pre-emergence activity level (growth control rate) on Setaria viridis” value is given as 9.
As for `Cc1ccc(-n2cnc(C(F)(F)F)n2)nc1Oc1ccc(F)c(OC(F)(F)F)c1` [Compound 66], in the series with major crops, the “Pre-emergence plant damage level … on Corn” value is recorded as 0, the “Pre-emergence plant damage level … on Cotton” value is recorded as 0 and the “Pre-emergence plant damage level … on Soybean” value is reported as 0. Besides, in series [1], the “Pre-emergence activity level (growth control rate) on Amaranthus retroflexus” value was 9, the “Pre-emergence activity level (growth control rate) on Descurainia sophia” value worked out at 9, the “Pre-emergence activity level (growth control rate) on Digitaria sanguinalis” value came to 9 and the “Pre-emergence activity level (growth control rate) on Setaria viridis” value amounted to 9. In addition, in series [1], the “Pre-emergence activity level (growth control rate) on Solanum nigrum” value came to 9 and the “Pre-emergence activity level … on Veronica” value is on record as 9.
With `COc1cc(Oc2cccc(OC(F)(F)F)c2)nc(-n2cnc(C(F)F)n2)c1` [Compound 67], in the series on major crops, the “Pre-emergence plant damage level … on Corn” value is reported as 0, the “Pre-emergence plant damage level … on Cotton” value is listed as 0 and the “Pre-emergence plant damage level … on Soybean” value was 0. In addition, in series [1], the “Pre-emergence activity level (growth control rate) on Amaranthus retroflexus” value was determined as 9; the “Pre-emergence activity level (growth control rate) on Descurainia sophia” value was 9; the “Pre-emergence activity level (growth control rate) on Digitaria sanguinalis” value is 7 (growth control rate is greater than or equal to 80% and less than 90%); the “Pre-emergence activity level (growth control rate) on Setaria viridis” value was 7 (growth control rate is greater than or equal to 80% and less than 90%). Further, in series [1], the “Pre-emergence activity level … on Veronica” value worked out at 9.
As to `COCc1cc(Oc2cccc(C(F)(F)F)c2)nc(-n2cnc(C(F)(F)F)n2)c1` [Compound 68], in the series with major crops, the “Pre-emergence plant damage level … on Corn” value stood at 0, the “Pre-emergence plant damage level … on Cotton” value was 0 and the “Pre-emergence plant damage level … on Soybean” value was found to be 0. In series [1], the “Pre-emergence activity level (growth control rate) on Amaranthus retroflexus” value is given as 9; the “Pre-emergence activity level (growth control rate) on Descurainia sophia” value was 8 (growth control rate is greater than or equal to 90% and less than 100%); the “Pre-emergence activity level (growth control rate) on Digitaria sanguinalis” value was 7 (growth control rate is greater than or equal to 80% and less than 90%); the “Pre-emergence activity level (growth control rate) on Setaria viridis” value was 8 (growth control rate is greater than or equal to 90% and less than 100%). In series [1], the “Pre-emergence activity level (growth control rate) on Solanum nigrum” value was 7 (growth control rate is greater than or equal to 80% and less than 90%); the “Pre-emergence activity level … on Veronica” value was 8 (growth control rate is greater than or equal to 90% and less than 100%).
For `CCc1ccc(-n2cnc(C(F)(F)F)n2)nc1Oc1cccc(C(C)(F)F)c1` [Compound 69], in the series with major crops, the “Pre-emergence plant damage level … on Corn” value turned out to be 0, the “Pre-emergence plant damage level … on Cotton” value stood at 0 and the “Pre-emergence plant damage level … on Soybean” value came to 0. In addition, in series [1], the “Pre-emergence activity level (growth control rate) on Amaranthus retroflexus” value is reported as 9, the “Pre-emergence activity level (growth control rate) on Descurainia sophia” value turned out to be 9, the “Pre-emergence activity level (growth control rate) on Digitaria sanguinalis” value was 9 and the “Pre-emergence activity level (growth control rate) on Setaria viridis” value was 9. In addition, in series [1], the “Pre-emergence activity level (growth control rate) on Solanum nigrum” value was 9 and the “Pre-emergence activity level … on Veronica” value came to 9.
In the case of `Cc1ccc(-n2cnc(C(F)F)n2)nc1Oc1ccc(F)c(C(F)(F)F)c1` [Compound 70], in the series on major crops, the “Pre-emergence plant damage level … on Corn” value amounted to 0, the “Pre-emergence plant damage level … on Cotton” value stood at 0 and the “Pre-emergence plant damage level … on Soybean” value is recorded as 0. For the same compound, in series [1], the “Pre-emergence activity level (growth control rate) on Amaranthus retroflexus” value was determined as 9, the “Pre-emergence activity level (growth control rate) on Descurainia sophia” value is 9, the “Pre-emergence activity level (growth control rate) on Digitaria sanguinalis” value is listed as 9 and the “Pre-emergence activity level (growth control rate) on Setaria viridis” value is given as 9. Besides, in series [1], the “Pre-emergence activity level (growth control rate) on Solanum nigrum” value is listed as 9 and the “Pre-emergence activity level … on Veronica” value is listed as 9.
